Experiment: Stability improvement test for urolithin (residual ratio by HPLC after storage at 60° C.)
Type: physicochemical
Settings: for Urolithin A residual ratio (%) (60° C.) 1 week later / Urolithin A residual ratio (%) (60° C.) 2 weeks later: aqueous solution with 10% ethanol, 10% glycerin, 0.005% urolithin A; for Urolithin A residual ratio (%) (60° C.) 1 week later: stored at 60° C. for 1 week; for Urolithin A residual ratio (%) (60° C.) 2 weeks later: stored at 60° C. for 2 weeks
Experimental: The stability of urolithin can be studied by measuring the total amount of urolithin before storage and the total amount of urolithin after storage under a temperature condition of 60° C. for one week or two weeks, and then calculating the urolithin residual ratio (%) according to the following calculation equation. As the method for measuring urolithin, for example, the method using HPLC described in Examples can be used. Urolithin residual ratio (%)=(total amount of urolithin after storage/total amount of urolithin before storage)×100 [Calculation Equation]
A description is given below for a case where urolithin A was used as the urolithin. Analysis of urolithin A was carried out using HPLC. More specifically, urolithin A (manufactured by Dalton Farma) was dissolved in an appropriate solvent to prepare a solution, and the solution was analyzed under the following HPLC conditions. Using the purity (%) (A) and the peak area value (B) in the HPLC, the factor of urolithin A and the urolithin A concentration in the sample were calculated according to the following calculation equation (1) and calculation equation (2). (Calculation Equation for Factor of Urolithin A) Factor of urolithin A=(B)/(concentration of standard solution of urolithin A (mg/L)×(A)/100) (1) (Calculation Equation for Urolithin A Concentration in Sample) Urolithin A concentration in sample (mg/L)=peak area value of urolithin A in sample/factor of urolithin A (2)
To an aqueous solution containing 10% ethanol and 10% glycerin, urolithin A was added to a concentration of 0.005%, and then the urolithin A was dissolved therein. To this solution, collagen (Hanamai) was added to a concentration of 0.5% to prepare a urolithin A-containing aqueous solution. The urolithin A content in the urolithin A-containing aqueous solution was measured after one week of storage and after two weeks of storage under a temperature condition of 60° C. By comparing the urolithin A contents measured before and after the storage, the residual ratio was calculated to evaluate the stability.
The same operation as in Example 1 was carried out except that collagen was not added, to provide a control as Comparative Example 1.
The residual ratio of urolithin A was calculated according to the following calculation equation (3). Urolithin residual ratio (%)=(content of urolithin A after storage/content of urolithin A before storage)×100 (3)

[1] = collagen 0% (Comparative Example 1)

SMILES: O=c1oc2cc(O)ccc2c2ccc(O)cc12 [Urolithin A, urolithin A]
- Urolithin A residual ratio (%) (60° C.) 1 week later [1]: 66.9%
- Urolithin A residual ratio (%) (60° C.) 2 weeks later [1]: 45.0%
- Urolithin A residual ratio (%) (60° C.) 1 week later (collagen 0.5% (Example 1)): 92.4%
- Urolithin A residual ratio (%) (60° C.) 2 weeks later (collagen 0.5% (Example 1)): 92.2%
- stability of urolithin A (in the presence of collagen versus without collagen, storage at 60° C.): increases in the presence of collagen

Reference: patent US11066381B2, “Urolithins-containing aqueous solution, dried solid composition thereof and production method therefor, and urolithins stabilizing method” (DAICEL CORPORATION, priority 2016, dated 2021)
